*1 amine or outer side, *2 acyl side, *3 side chain or, on linkers, in order; H or OH if unused. Where a SMILES comes first, the peptide text is derived from it. Bridges are numbered along the chain shown (N, C = ends). Roman numbers before positions name the chains, in order. [ ]: non-standard residue; d: D form. Actinocin(9to1) = Cc1c2oc3c(C)ccc(C(=O)[*:1])c3nc-2c(C(=O)[*:2])c(N)c1=O; NMeV = CN[C@H](C(=O)O)C(C)C; Sar = CNCC(=O)O
Tests used:
H2A.Z = experiment: Western blot of total proteins, H2A.Z; format: cell-based, human; details: HL-60, 2 hours treatment, FIG. 10A
Method: Whole-cell lysates from approximately 0.2×10^6 cells per each sample were separated on 12% SDS-PAGE gels and transferred to a nitrocellulose membrane. Immunoblots were stained overnight at 4° C. with the following primary antibodies: H2A.Z (1:2,000; Abcam ab4174), H2A.Z acetyl (K4+K7+K11) (1:2,000; Abcam ab18262) or TIP60 (1:1000; generous gift from Bruno Amati). All secondary horseradish peroxidase (HRP)-conjugated antibodies were diluted 1:5,000 and incubated for 1 hr at room temperature with TBST/5% BSA. Immuno-reactive proteins were detected using the Pierce® ECL system (Thermo Scientific #32106).

HL-60 cells = experiment: nasRNA-seq, genome wide transcription inhibition upon DRB and ActD treatment; format: cell-based, human; details: HL-60 released from double thymidine block, 2 hr, DRB 200 μM, ActD 0.8 μM; for average gene expression reduction: vs DMSO
Method: Nascent RNA/DNA capture was performed using Click-iT Nascent RNA Capture Kit (ThermoFisher) according to the manufacturer's instructions with minor modifications. Briefly, 1. Labeling the cells with EU/EdU. 200 mM EU or 30 mM EdU stock solutions were added to the cells, to a final concentration 0.5 mM or 30 μM, respectively. 2. Incubation. The cells were incubated for 1 or 2 hours. 3. RNA/DNA isolation. The cells were harvested and the RNA/DNA were isolated and dissolved in 14 μL of H2O. 4. Biotinylation of RNA/DNA by Click reaction. Click-iT reaction cocktail (50 μL per reaction) was prepared accordingly to manufacturer's instructions: a mixture containing 1× Click-iT EU buffer; 2 mM CuSO4; 1 mM Biotin azide; 13.25 μL of the isolated RNA; 10 mM Click-iT reaction buffer additive 1; 12 mM Click-iT reaction buffer additive 2 was prepared. After adding each component, the reaction cocktail was gently mixed by vortexing. The addition of the Click-iT reaction buffer additive 1 stock initiates the click reaction between the EU-RNA/EdU-DNA and biotin azide. Afterwards the Click-iT® reaction buffer additive 2 is added and incubated for 30 minutes with gentle vortexing. 5. RNA/DNA precipitation. 1 μL of ULTRAPURE™ Glycogen, 55 μL of 7 M ammonium acetate, and 750 μL of chilled 100% ethanol were added to the click reaction, incubated at −70° C. for at least 30 minutes and after centrifugation the pellet was dissolved in 125 μL of H2O. 6. Binding biotinylated RNA/DNA to Dynabeads® MYONE™ Streptavidin Ti magnetic beads. The RNA/DNA binding reaction mixture included: 125 μL 2×Click-iT RNA binding buffer; 2 μL Ribonuclease Inhibitor or 2 μL of water for DNA; 125 μL of the isolated biotinylated RNA/DNA. The RNA binding reaction mixture was heated at 68-70° C. for 5 minutes and 50 μL of bead suspension added into the heated RNA binding reaction mixture. The tube containing the RNA/DNA binding reaction was incubated at r.t. for 30 min while gently vortexing to prevent the beads from settling. The beads were immobilized using the magnet and washed 5 times with 500 μL of Click-iT® reaction wash buffer 1 and 5 times with 500 μL of Click-iT® reaction wash buffer 2. Finally, the beads were resuspended in 50 μL of Click-iT reaction wash buffer 2 and the captured RNA immediately processed to cDNA synthesis. The captured DNA was released into 50 μL of boiling water and used in qPCR analyses.
Double Thymidine block (early S-phase block) was carried out as described. […] Synchrony was monitored by flow cytometry analysis of propidium iodide-stained cells using a LSRII flow cytometer (BD Biosciences) at the Harvard Stem Cell Institute/Beth Israel Deaconess Center flow cytometry facility. […]

Row | SMILES | overall global content of H2A.Z (H2A.Z) | gene expression reduction ratio across distributions (treated/DMSO) (HL-60 cells) | average gene expression reduction (HL-60 cells)
1 | Cc1c2oc3c(C)ccc(C(=O)N[C@@H]4C(=O)N[C@H](C(C)C)C(=O)N5CCC[C@H]5C(=O)N(C)CC(=O)N(C)[C@@H](C(C)C)C(=O)O[C@@H]4C)c3nc-2c(C(=O)N[C@@H]2C(=O)N[C@H](C(C)C)C(=O)N3CCC[C@H]3C(=O)N(C)CC(=O)N(C)[C@@H](C(C)C)C(=O)O[C@@H]2C)c(N)c1=O [ActD, Actinomycin D] (I: T[dV]P[Sar][NMeV] / II: T[dV]P[Sar][NMeV]; ester I:1-I:C, II:1-II:C; linker I:N-II:N via Actinocin(9to1)) | not affected | 0.21 | 79%
2 | OC[C@H]1O[C@@H](n2cnc3cc(Cl)c(Cl)cc32)[C@H](O)[C@@H]1O [DRB, 5,6-Dichlorobenzimidazole 1-β-D-ribofuranoside] | not affected | 0.45 | 55%
